The values that follow come from patent US20220332710A1, “SOLID FORMS OF A GLYT1 INHIBITOR” (Boehringer Ingelheim International GmbH, priority 2019, published 2022).

This data set is described as follows: Water sorption isotherm (dynamic vapor sorption). It is filed as physicochemical. The settings on record: 25° C., maintained at 90% relative humidity for 6 hours under humid nitrogen purge. On the procedure:
FIG. 11 is a water sorption isotherm showing the water-uptake of Form II of Coumpound 1 and amorphous Coumpound 1 when stored at 25° C. at different relative humidities.
As discussed above, the invention relates to crystalline forms of Coumpound 1 described herein as Form I, Form II, or Form III; and mixtures of at least two of Form I, Form II, or Form III (“the crystalline compounds of the invention”). WO2013017657 makes no mention of any crystalline form of Compound, any method for preparing a crystalline form of Coumpound 1, or any of the properties of the crystalline forms of Coumpound 1 described herein. The compounds of the invention have advantageous properties (e.g., improved stability and reproducibility) as compared to the amorphous form of Coumpound 1 described in Example 1 herein and WO2013017657. Improvements over the amorphous form include, for example, lower hygroscopicity and decreased tendency to convert to a different solid form. For example, the water-uptake of amorphous Coumpound 1 at 25° C. is 1.4% when maintained at 90% relative humidity for 6 hours under humid nitrogen purge. […]
Water sorption isotherms are determined using a dynamic vapor sorption system (Advantage, DVS, London, UK). […]

On to `CC(Oc1ccc(S(C)(=O)=O)cc1C(=O)N1CC2C[C@]2(c2cc(C(F)(F)F)on2)C1)C(F)(F)F` (some centres unmarked) [Form II of Coumpound 1], for which the water-uptake result was “about 0.04%”.

In the case of `CC(Oc1ccc(S(C)(=O)=O)cc1C(=O)N1CC2C[C@]2(c2cc(C(F)(F)F)on2)C1)C(F)(F)F` (some centres unmarked) [amorphous Coumpound 1], the water-uptake was determined as 1.4%.
